In the supplement of paper PMC10307832:

What was measured:
Assay in all cases: relative viability (nuclei count vs DMSO), 5 days (fraction); higher = more cells survive
Tozasertib + Bortezomib = compound: Cc1cc(Nc2cc(N3CCN(C)CC3)nc(Sc3ccc(NC(=O)C4CC4)cc3)n2)n[nH]1 [Tozasertib] + CC(C)C[C@H](NC(=O)[C@H](Cc1ccccc1)NC(=O)c1cnccn1)B(O)O [Bortezomib] (partner 0.002 µM)
Procedure, shortened: (§1)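 Medians of duplicate plates are given as relative viability. That measure is the nuclei count in treated wells divided by the count in vehicle wells. Counts were taken on 4× images of lung cancer cell lines in 1536-well plates, 5 days after pin-tool dosing the day after seeding with one drug alone or a fixed anchor-drug dose plus five library-drug doses (not always all listed) in √10 steps.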

Tozasertib + Foretinib = compound: Cc1cc(Nc2cc(N3CCN(C)CC3)nc(Sc3ccc(NC(=O)C4CC4)cc3)n2)n[nH]1 [Tozasertib] + COc1cc2c(Oc3ccc(NC(=O)C4(C(=O)Nc5ccc(F)cc5)CC4)cc3F)ccnc2cc1OCCCN1CCOCC1 [Foretinib] (partner 0.25 µM)
Procedure, shortened: as §1

Tozasertib + Lapatinib = compound: Cc1cc(Nc2cc(N3CCN(C)CC3)nc(Sc3ccc(NC(=O)C4CC4)cc3)n2)n[nH]1 [Tozasertib] + CS(=O)(=O)CCNCc1ccc(-c2ccc3ncnc(Nc4ccc(OCc5cccc(F)c5)c(Cl)c4)c3c2)o1 [Lapatinib] (partner 2 µM)
Procedure, shortened: as §1

Tozasertib + Crizotinib = compound: Cc1cc(Nc2cc(N3CCN(C)CC3)nc(Sc3ccc(NC(=O)C4CC4)cc3)n2)n[nH]1 [Tozasertib] + C[C@@H](Oc1cc(-c2cnn(C3CCNCC3)c2)cnc1N)c1c(Cl)ccc(F)c1Cl [Crizotinib] (partner 1 µM)
Procedure, shortened: as §1

Tozasertib + Pemetrexed = compound: Cc1cc(Nc2cc(N3CCN(C)CC3)nc(Sc3ccc(NC(=O)C4CC4)cc3)n2)n[nH]1 [Tozasertib] + Nc1nc2[nH]cc(CCc3ccc(C(=O)N[C@@H](CCC(=O)O)C(=O)O)cc3)c2c(=O)[nH]1 [Pemetrexed] (partner 0.2 µM)
Procedure, shortened: as §1

Cell Line | relative viability (Tozasertib + Bortezomib; first compound 0.004 µM) | relative viability (Tozasertib + Bortezomib; first compound 0.01265 µM) | relative viability (Tozasertib + Bortezomib; first compound 0.04 µM) | relative viability (Tozasertib + Bortezomib; first compound 0.1265 µM) | relative viability (Tozasertib + Foretinib; first compound 0.004 µM) | relative viability (Tozasertib + Foretinib; first compound 0.01265 µM) | relative viability (Tozasertib + Foretinib; first compound 0.04 µM) | relative viability (Tozasertib + Foretinib; first compound 0.1265 µM) | relative viability (Tozasertib + Lapatinib; first compound 0.004 µM) | relative viability (Tozasertib + Lapatinib; first compound 0.01265 µM) | relative viability (Tozasertib + Lapatinib; first compound 0.04 µM) | relative viability (Tozasertib + Lapatinib; first compound 0.1265 µM) | relative viability (Tozasertib + Crizotinib; first compound 0.004 µM) | relative viability (Tozasertib + Crizotinib; first compound 0.01265 µM) | relative viability (Tozasertib + Crizotinib; first compound 0.04 µM) | relative viability (Tozasertib + Crizotinib; first compound 0.1265 µM) | relative viability (Tozasertib + Pemetrexed; first compound 0.004 µM) | relative viability (Tozasertib + Pemetrexed; first compound 0.01265 µM) | relative viability (Tozasertib + Pemetrexed; first compound 0.04 µM) | relative viability (Tozasertib + Pemetrexed; first compound 0.1265 µM)
HOP-62 | 0.735 | 0.713 | 0.404 | 0.67 | 0.953 | 1.07 | 1.06 | 0.915 | 1.06 | 0.999 | 0.856 | 0.943 | 1.03 | 0.964 | 0.941 | 0.776 | 0.396 | 0.299 | 0.32 | 0.362
LC-2-ad | 0.949 | 0.978 | 1.04 | 0.427 | 0.812 |  | 1.04 | 0.609 | 1.01 | 0.884 | 0.97 | 0.509 | 0.441 | 0.452 | 0.405 | 0.369 | 0.291 | 0.252 | 0.265 | 0.275
LCLC-97TM1 | 0.933 | 0.271 | 0.624 | 0.106 | 1.03 | 0.895 | 0.95 | 0.695 |  | 0.884 | 1.04 | 0.592 |  | 0.288 | 0.257 | 0.189 | 0.191 | 0.157 | 0.15 | 0.18
LOU-NH91 | 0.423 | 0.51 | 0.485 | 0.408 |  | 0.923 | 1.02 | 0.918 | 0.789 | 0.742 | 0.803 | 0.638 | 0.619 | 0.703 | 0.754 | 0.722 | 0.421 | 0.409 | 0.372 | 0.39
LU99A | 1.1 | 0.917 | 0.881 |  | 0.798 | 0.629 | 0.796 | 0.487 | 1.07 | 0.749 | 0.742 | 0.467 | 0.627 | 0.514 | 0.466 | 0.27 | 0.165 | 0.155 | 0.207 | 0.193
LXF-289 | 1 | 0.917 | 0.972 | 0.777 | 1.06 | 0.963 | 0.912 | 0.739 | 0.956 | 0.846 | 0.823 | 0.722 |  | 0.758 | 0.717 | 0.161 | 0.972 | 0.824 | 0.842 | 0.859
NCI-H23 | 1.06 | 1.24 | 1.11 | 0.424 | 1.02 | 0.887 | 0.848 | 0.331 | 1.1 | 0.96 | 0.989 | 0.269 | 0.45 | 0.459 | 0.421 | 0.27 | 0.888 | 0.659 | 0.695 | 0.319
NCI-H322M | 0.993 | 1.12 | 1.39 | 1.23 |  | 0.941 | 1.02 | 0.47 | 0.594 | 0.538 | 0.614 | 0.519 | 0.891 | 0.894 | 0.552 | 0.584 | 0.575 | 0.585 | 0.629 | 0.478
NCI-H460 | 1.13 | 0.949 | 1.46 | 0.844 | 1.03 | 0.981 | 1.01 | 0.504 | 0.968 | 0.842 | 1.01 | 0.0247 | 0.871 | 0.874 | 0.767 | 0.197 | 0.0596 | 0.0601 | 0.0605 | 0.0623
NCI-H520 | 0.555 | 0.585 | 0.852 | 0.255 | 0.872 | 0.602 | 0.923 | 0.608 | 0.868 | 0.816 | 0.775 | 0.214 | 1.31 | 0.742 | 0.484 | 0.355 | 0.743 | 0.789 | 0.633 | 0.413
NCI-H596 | 1.06 | 1.1 | 1.06 | 0.796 | 0.827 | 0.916 | 0.864 | 0.766 | 1.17 | 1.07 | 1.11 | 0.49 | 1.09 | 0.949 | 1.01 | 0.79 | 0.549 | 0.477 |  | 0.473
NCI-H647 | 1.17 |  | 1.16 | 0.447 | 1.24 | 1.28 | 1.34 |  | 1.13 | 0.989 | 0.895 | 0.235 | 1.26 | 0.979 | 0.794 | 0.31 | 0.186 | 0.183 | 0.169 | 0.125
NCI-H650 | 0.663 | 0.68 | 0.976 | 0.523 | 1.14 |  | 1.02 | 0.879 | 1.05 | 0.844 | 0.991 | 0.454 | 0.8 | 0.73 | 0.574 | 0.397 | 1.01 | 0.897 | 0.878 | 0.82
NCI-H661 | 0.922 | 0.741 | 1.03 | 0.499 | 1.09 | 0.982 | 1.03 | 0.357 | 0.581 |  | 0.427 | 0.376 | 1.06 | 1.05 | 0.885 | 0.605 | 1.01 | 0.833 | 0.933 | 0.561
